Compound `CCN(CC)C(=O)c1ccc2c(c1)c(C#N)c(-c1ccc(NC(=O)OC(C)C)cc1)n2C1CCC1` [Compound 3145] returned a melting point of 225 to 226 °C.

For `CC(C)OC(=O)Nc1ccc(-c2c(C#N)c3cc(C(=O)N(C)C)ccc3n2C2CCC2)cc1` [Compound 3146], the melting point was in the range of 136 to 138 °C.

`CC(C)OC(=O)Nc1ccc(-c2c(C#N)c3cc(C(=O)N4CCCC4)ccc3n2C2CCC2)cc1` [Compound 3148] showed a melting point of 204 to 205 °C.

In turn, `N#Cc1c(-c2ccc(NC3=NC(O)(C(F)(F)F)CS3)cc2)n(C2CCC2)c2cc(OC3CCOCC3)ccc12` (stereo not drawn) [Compound 3150] had a melting point of 136 to 138 °C.

Compound `CC(C)(C)c1csc(Nc2ccc(-c3c(C#N)c4ccc(OC5CCOCC5)cc4n3C3CCC3)cc2)n1` [Compound 3151] returned a melting point of 246 to 248 °C.

As for `Cc1csc(Nc2ccc(-c3c(C#N)c4ccc(OC5CCOCC5)cc4n3C3CCC3)cc2)n1` [Compound 3152], the melting point is 215 to 217 °C.

In the case of `N#Cc1c(-c2ccc(Nc3nc(-c4ccc(F)cc4)cs3)cc2)n(C2CCC2)c2cc(OC3CCOCC3)ccc12` [Compound 3153], the melting point lay in the range of 269 to 271 °C.

Consider `N#Cc1c(-c2ccc(Nc3ccc(F)c(C(F)(F)F)c3)cc2)n(C2CCC2)c2cc(OC3CCOCC3)ccc12` [Compound 3156], for which the melting point lay within 168 to 169 °C.

Take `N#Cc1c(-c2ccc(NC(=S)NC3CCCC3)cc2)n(C2CCC2)c2cc(OC3CCOCC3)ccc12` [Compound 3157]: the melting point is 137 to 138 °C.

`CC(C)NC(=S)Nc1ccc(-c2c(C#N)c3ccc(OC4CCOCC4)cc3n2C2CCC2)cc1` [Compound 3158]: the melting point is 129 to 130 °C.

In turn, `COc1ccc(Nc2ccc(-c3c(C#N)c4ccc(OC5CCOCC5)cc4n3C3CCC3)cc2)cc1C` [Compound 3159] had a melting point of 195 to 201 °C.

The compound `N#Cc1c(-c2ccc(Nc3ccccc3Cl)cc2)n(C2CCC2)c2cc(OC3CCOCC3)ccc12` [Compound 3160] came in with a melting point of 125 to 128 °C.

As for `Cc1cc(Cl)ccc1Nc1ccc(-c2c(C#N)c3ccc(OC4CCOCC4)cc3n2C2CCC2)cc1` [Compound 3161], the melting point fell in the range of 174 to 179 °C.

`CC(=O)c1cccc(Nc2ccc(-c3c(C#N)c4ccc(OC5CCOCC5)cc4n3C3CCC3)cc2)c1` [Compound 3162] returned a melting point of 148 to 152 °C.

`N#Cc1c(-c2ccc(Nc3ccccn3)cc2)n(C2CCC2)c2cc(OC3CCOCC3)ccc12` [Compound 3163] displayed a melting point of 211 to 212 °C.

Turning to `N#Cc1c(-c2ccc(Nc3cccnc3)cc2)n(C2CCC2)c2cc(OC3CCOCC3)ccc12` [Compound 3165], the melting point is 210 to 212 °C.

Consider `N#Cc1c(-c2ccc(Nc3ncccn3)cc2)n(C2CCC2)c2cc(OC3CCOCC3)ccc12` [Compound 3166], for which the melting point is 209 to 213 °C.

In the case of `N#Cc1c(-c2ccc(Oc3ncccn3)cc2)n(C2CCC2)c2cc(OC3CCOCC3)ccc12` [Compound 3167], the melting point lay in the range of 168 to 169 °C.

`N#Cc1c(-c2ccc(Oc3cnccn3)cc2)n(C2CCC2)c2cc(OC3CCOCC3)ccc12` [Compound 3168] registered a melting point of 167 to 170 °C.

`N#Cc1c(-c2ccc(Oc3ccccn3)cc2)n(C2CCC2)c2cc(OC3CCOCC3)ccc12` [Compound 3169] returned a melting point of 147 to 149 °C.

For `CCNC(=O)Oc1ccc2c(C#N)c(-c3ccc(NC(=O)O[C@H](C)C4CC4)cc3)n(C3CCC3)c2c1` [Compound 3170], the melting point lay within 192 to 194 °C.

`C[C@@H](OC(=O)Nc1ccc(-c2c(C#N)c3ccc(OC(=O)NC4CCCCC4)cc3n2C2CCC2)cc1)C1CC1` [Compound 3172] gave a melting point of 213 to 216 °C.

`C[C@@H](OC(=O)Nc1ccc(-c2c(C#N)c3ccc(OC(=O)NCCc4ccccc4)cc3n2C2CCC2)cc1)C1CC1` [Compound 3173] had a melting point of 203 to 206 °C.

In the case of `CC(C)NC(=O)Oc1ccc2c(C#N)c(-c3ccc(NC(=O)O[C@H](C)C4CC4)cc3)n(C3CCC3)c2c1` [Compound 3174], the melting point lay in the range of 202 to 205 °C.
